Measurements taken from article PMC8213057, “Targeting ALK2: An Open Science Approach to Developing Therapeutics for the Treatment of Diffuse Intrinsic Pontine Glioma” (Journal of Medicinal Chemistry, 2020).

How the values were obtained:
[1] = target: T1, MAPKAPK5/PRAK (Homo sapiens, UniProt Q8IW41); experiment: biochemical; settings: read-out: % enzyme activity, 1 μM; Run 1, Run 2
T1 sequence (Q8IW41 1-473): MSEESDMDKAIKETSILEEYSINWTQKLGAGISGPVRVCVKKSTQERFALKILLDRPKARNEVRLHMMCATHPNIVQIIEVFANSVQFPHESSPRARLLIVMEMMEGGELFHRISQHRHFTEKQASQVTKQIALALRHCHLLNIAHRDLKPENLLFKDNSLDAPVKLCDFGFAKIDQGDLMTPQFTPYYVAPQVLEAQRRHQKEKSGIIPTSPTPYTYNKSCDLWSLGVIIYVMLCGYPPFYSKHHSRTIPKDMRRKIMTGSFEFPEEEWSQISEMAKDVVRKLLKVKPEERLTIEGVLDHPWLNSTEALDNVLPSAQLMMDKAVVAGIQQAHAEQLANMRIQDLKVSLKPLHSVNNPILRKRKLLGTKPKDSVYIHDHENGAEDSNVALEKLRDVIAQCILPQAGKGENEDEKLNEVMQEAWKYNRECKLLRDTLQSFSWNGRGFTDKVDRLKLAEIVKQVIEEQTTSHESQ

[2] = target: LYN (Homo sapiens, UniProt P07948); settings: 1 μM; Run 1, Run 2
[3] = target: CDK2/cyclin E (Homo sapiens, UniProt P24941); settings: 1 μM; Run 1, Run 2
[4] = target: PYK2 (Homo sapiens, UniProt Q14289); settings: 1 μM; Run 1, Run 2
[5] = target: T2, MYO3b (Homo sapiens, UniProt Q8WXR4); experiment: biochemical; settings: read-out: % enzyme activity, 1 μM; Run 1, Run 2
T2 sequence (Q8WXR4 1-1341): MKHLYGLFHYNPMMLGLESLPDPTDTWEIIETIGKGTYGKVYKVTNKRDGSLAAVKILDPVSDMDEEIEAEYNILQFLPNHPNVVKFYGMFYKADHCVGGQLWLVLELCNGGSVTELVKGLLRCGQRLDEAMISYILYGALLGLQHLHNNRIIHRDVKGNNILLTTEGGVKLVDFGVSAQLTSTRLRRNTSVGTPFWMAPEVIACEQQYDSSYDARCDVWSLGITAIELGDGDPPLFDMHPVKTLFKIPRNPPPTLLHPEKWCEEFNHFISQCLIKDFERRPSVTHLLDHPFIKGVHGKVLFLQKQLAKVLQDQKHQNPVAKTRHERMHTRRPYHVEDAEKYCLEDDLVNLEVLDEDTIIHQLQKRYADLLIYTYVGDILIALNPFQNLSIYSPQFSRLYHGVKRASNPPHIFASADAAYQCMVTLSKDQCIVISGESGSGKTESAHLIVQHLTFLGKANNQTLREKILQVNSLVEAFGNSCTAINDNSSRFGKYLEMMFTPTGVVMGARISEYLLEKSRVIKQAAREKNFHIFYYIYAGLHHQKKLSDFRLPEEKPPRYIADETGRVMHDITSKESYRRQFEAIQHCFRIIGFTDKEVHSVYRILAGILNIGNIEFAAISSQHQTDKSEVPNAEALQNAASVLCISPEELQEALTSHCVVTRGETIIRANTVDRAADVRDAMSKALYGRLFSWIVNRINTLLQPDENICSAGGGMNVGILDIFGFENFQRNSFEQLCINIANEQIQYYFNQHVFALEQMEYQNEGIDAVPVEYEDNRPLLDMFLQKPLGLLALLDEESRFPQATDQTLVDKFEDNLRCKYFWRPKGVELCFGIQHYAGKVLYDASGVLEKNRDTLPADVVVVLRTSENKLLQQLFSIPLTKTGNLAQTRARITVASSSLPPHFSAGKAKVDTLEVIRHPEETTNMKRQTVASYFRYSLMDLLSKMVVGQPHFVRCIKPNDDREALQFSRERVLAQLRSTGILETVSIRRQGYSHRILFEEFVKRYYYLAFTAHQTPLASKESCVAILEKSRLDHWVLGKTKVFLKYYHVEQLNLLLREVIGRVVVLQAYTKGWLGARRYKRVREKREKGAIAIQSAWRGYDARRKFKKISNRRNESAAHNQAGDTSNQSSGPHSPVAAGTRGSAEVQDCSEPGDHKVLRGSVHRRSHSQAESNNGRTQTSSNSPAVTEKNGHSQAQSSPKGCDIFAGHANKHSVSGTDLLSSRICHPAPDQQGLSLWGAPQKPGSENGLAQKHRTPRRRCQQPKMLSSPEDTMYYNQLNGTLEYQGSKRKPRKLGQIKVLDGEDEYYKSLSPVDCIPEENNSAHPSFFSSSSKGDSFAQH

[6] = target: T3, PKG2/PRKG2 (Homo sapiens, UniProt Q13237); settings: 1 μM; Run 1, Run 2
T3 sequence (Q13237 1-762): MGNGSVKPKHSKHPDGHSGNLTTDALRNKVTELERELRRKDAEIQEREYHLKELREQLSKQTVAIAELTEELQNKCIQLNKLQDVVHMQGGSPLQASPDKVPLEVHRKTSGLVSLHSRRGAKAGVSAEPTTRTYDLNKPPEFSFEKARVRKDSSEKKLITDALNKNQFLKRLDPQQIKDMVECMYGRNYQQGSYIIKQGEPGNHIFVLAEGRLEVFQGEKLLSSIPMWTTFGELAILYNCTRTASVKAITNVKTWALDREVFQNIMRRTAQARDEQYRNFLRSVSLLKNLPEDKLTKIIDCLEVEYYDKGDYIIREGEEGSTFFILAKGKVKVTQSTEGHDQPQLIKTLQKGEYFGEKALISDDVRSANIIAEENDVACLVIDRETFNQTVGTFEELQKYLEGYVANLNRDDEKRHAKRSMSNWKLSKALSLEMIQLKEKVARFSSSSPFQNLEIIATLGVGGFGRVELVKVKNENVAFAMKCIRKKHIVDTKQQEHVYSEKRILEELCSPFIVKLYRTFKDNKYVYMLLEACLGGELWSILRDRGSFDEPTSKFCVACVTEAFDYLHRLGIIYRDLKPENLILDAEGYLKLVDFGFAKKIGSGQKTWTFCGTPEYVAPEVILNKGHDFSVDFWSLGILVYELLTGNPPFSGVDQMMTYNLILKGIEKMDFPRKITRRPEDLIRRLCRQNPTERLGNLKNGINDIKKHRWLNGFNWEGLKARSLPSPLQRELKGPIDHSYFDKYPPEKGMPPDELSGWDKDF

[7] = target: p70S6Kb/RPS6KB2 (Homo sapiens, UniProt Q9UBS0); experiment: biochemical; settings: read-out: % enzyme activity, 1 μM; Run 1, Run 2
[8] = target: PKCb1 (Homo sapiens, UniProt P05771); experiment: biochemical; settings: read-out: % enzyme activity, 1 μM; Run 1, Run 2
[9] = target: COT1/MAP3K8 (Homo sapiens, UniProt P41279); settings: 1 μM; Run 1, Run 2
COT1/MAP3K8, sequence (P41279 whole entry): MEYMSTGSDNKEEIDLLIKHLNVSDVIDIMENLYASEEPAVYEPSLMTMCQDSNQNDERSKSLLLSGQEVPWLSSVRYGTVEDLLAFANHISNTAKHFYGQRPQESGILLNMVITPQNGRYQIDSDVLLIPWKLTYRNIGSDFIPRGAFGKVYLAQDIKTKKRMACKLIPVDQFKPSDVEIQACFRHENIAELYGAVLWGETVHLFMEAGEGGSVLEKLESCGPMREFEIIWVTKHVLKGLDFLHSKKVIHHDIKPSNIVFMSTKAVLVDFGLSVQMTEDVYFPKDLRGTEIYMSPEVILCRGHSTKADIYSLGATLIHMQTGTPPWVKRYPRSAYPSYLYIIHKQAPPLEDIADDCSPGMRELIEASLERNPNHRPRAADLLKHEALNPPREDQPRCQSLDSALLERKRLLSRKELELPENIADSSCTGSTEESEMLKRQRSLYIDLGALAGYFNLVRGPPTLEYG

PKCb1, sequence (P05771 whole entry): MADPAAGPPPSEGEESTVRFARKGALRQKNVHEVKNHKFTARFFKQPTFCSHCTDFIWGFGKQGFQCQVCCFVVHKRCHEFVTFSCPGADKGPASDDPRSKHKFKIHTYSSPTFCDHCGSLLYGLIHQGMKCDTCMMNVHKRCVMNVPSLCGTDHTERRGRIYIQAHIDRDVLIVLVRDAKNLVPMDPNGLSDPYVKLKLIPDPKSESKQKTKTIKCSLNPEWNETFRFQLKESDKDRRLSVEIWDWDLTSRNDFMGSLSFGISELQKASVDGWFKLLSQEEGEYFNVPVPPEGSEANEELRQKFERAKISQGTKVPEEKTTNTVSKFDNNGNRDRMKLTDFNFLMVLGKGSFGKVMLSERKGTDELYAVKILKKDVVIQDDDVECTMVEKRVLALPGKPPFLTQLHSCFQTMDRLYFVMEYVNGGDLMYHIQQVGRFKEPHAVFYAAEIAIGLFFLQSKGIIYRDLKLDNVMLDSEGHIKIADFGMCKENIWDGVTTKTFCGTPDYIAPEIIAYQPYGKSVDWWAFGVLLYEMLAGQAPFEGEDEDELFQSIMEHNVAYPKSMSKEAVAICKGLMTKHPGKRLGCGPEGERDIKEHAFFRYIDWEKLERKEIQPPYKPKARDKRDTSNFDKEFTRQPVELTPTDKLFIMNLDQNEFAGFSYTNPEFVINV
LYN, sequence (P07948 whole entry): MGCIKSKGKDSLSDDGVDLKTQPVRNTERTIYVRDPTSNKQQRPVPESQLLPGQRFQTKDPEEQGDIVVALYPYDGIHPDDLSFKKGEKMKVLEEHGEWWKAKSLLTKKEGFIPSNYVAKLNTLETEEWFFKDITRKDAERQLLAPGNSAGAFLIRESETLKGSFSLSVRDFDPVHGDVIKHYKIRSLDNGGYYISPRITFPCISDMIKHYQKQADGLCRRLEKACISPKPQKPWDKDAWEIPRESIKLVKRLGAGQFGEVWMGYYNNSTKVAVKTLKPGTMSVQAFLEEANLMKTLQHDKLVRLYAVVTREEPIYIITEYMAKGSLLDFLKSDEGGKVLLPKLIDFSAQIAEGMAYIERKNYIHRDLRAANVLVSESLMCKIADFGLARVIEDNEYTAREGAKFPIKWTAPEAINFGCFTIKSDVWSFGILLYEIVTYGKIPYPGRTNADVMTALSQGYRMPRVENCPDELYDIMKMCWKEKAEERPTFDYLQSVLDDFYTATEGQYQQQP
PYK2, sequence (Q14289 whole entry): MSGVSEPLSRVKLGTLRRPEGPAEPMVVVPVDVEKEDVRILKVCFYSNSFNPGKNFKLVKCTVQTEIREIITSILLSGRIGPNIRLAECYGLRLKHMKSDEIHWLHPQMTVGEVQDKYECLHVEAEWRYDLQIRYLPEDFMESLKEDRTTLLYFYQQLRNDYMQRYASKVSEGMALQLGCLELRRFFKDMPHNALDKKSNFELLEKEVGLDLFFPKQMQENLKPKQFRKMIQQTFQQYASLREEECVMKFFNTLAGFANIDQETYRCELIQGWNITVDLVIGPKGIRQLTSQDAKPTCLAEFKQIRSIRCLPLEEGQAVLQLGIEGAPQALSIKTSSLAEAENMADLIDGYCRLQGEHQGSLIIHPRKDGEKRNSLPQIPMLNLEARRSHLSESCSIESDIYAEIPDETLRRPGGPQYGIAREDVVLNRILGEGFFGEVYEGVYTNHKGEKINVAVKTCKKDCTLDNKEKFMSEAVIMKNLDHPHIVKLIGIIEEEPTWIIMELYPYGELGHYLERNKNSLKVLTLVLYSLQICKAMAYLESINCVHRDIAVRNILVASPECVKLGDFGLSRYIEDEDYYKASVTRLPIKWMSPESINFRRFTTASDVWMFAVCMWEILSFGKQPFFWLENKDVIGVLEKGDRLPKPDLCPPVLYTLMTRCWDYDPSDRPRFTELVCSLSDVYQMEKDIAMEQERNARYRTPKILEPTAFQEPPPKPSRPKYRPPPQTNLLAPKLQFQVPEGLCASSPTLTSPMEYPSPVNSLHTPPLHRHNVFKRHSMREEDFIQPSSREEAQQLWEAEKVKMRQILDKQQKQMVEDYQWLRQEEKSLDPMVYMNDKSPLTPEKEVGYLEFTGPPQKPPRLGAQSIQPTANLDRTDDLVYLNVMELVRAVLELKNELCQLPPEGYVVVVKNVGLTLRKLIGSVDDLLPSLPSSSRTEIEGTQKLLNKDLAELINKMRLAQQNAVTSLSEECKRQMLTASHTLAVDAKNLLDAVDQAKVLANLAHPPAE
p70S6Kb/RPS6KB2, sequence (Q9UBS0 whole entry): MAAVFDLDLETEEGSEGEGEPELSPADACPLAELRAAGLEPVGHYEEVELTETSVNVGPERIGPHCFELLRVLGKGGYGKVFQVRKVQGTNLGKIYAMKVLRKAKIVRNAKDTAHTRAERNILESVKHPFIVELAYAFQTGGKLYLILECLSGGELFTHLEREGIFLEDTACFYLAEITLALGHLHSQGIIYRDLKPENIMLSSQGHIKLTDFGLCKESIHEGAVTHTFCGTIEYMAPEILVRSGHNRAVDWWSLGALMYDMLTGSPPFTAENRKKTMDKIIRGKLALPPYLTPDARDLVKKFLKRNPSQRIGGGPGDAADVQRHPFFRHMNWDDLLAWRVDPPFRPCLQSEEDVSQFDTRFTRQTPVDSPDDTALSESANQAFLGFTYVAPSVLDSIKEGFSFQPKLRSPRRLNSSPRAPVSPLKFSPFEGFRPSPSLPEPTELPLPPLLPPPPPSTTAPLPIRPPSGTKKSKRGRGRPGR

Compound | remaining activity at 1 µM [1] [%] | % enzyme activity [2] [%] | % enzyme activity [3] [%] | % enzyme activity [4] [%] | remaining activity at 1 µM [5] [%] | % enzyme activity [6] [%] | remaining activity at 1 µM [7] [%] | remaining activity at 1 µM [8] [%] | % enzyme activity [9] [%]
COc1cc(-c2cncc(-c3ccc(N4CCN(C)CC4)cc3)c2C)cc(F)c1C(N)=O [Compound 26a, 2-Fluoro-6-methoxy-4-(4-methyl-5-(4-(4-methylpiperazin-1-yl)phenyl)pyridin-3-yl)benzamide] | 93.2 | 79.23 | 104.52 | 85.65 | 81.6 | 97.48 | 97.3 | 85.5 | 90.60
COc1cc(-c2cncc(-c3ccc(N4C[C@@H](C)N(C)[C@@H](C)C4)cc3)c2C)cc(F)c1C(N)=O [Compound 26c, 2-Fluoro-6-methoxy-4-(4-methyl-5-(4-((3R,5S)-3,4,5-trimethylpiperazin-1-yl)phenyl)pyridin-3-yl)benzamide] | 94.7 | 88.67 | 102.10 | 85.73 | 86.5 | 97.08 | 102 | 85.3 | 93.89
